Reference: patent US7560468B2, “Substituted 1,4,8-triazaspiro[4,5]decan-2-one compounds” (Gruenenthal GmbH, priority 2004, dated 2009)

System: batrachotoxin (BTX) binding site of the sodium channel
Assay: Affinity to the batrachotoxin (BTX) binding site of the sodium channel
Details: rat cerebrocortex synaptosomes, [3H]-batrachotoxinin A20 α-benzoate 10 nM; test concentration not given

Row | Molecule | BTX Inhibition
1 | 1-Allyl-3-isopropyl-2-oxo-1,4,8-triazaspiro[4,5]decan-8-thiocarboxylic acid (3,5-dichlorobenzol)amide [Example 180] | 54
2 | 1-Butyl-3-isopropyl-2-oxo-1,4,8-triazaspiro[4,5]decan-8-thiocarboxylic acid (3-chlorobenzol)amide [Example 142] | 63
3 | 1-Methyl-3-(2-methylsulfanylethyl)-2-oxo-1,4,8-triazaspiro[4,5]decan-8-thiocarboxylic acid (3-trifluoromethylbenzol)amide [Example 194] | 36
4 | CC(C)C1NC2(CCN(S(=O)(=O)c3ccc(F)c(Cl)c3)CC2)N(CCOc2ccccc2)C1=O (stereo not drawn) [Example 17, 8-(3-Chloro-4-fluorobenzolsulfonyl)-3-isopropyl-1-(2-phenoxy-ethyl)-1,4,8-triazaspiro[4,5]decan-2-one] | 41
5 | CCCCN1C(=O)C(C(C)C)NC12CCN(S(=O)(=O)c1ccc(F)cc1F)CC2 (stereo not drawn) [Example 19, 1-Butyl-8-(2,4-difluorobenzolsulfonyl)-3-isopropyl-1,4,8-triazaspiro[4,5]decan-2-one] | 30
6 | Cc1ccc(S(=O)(=O)N2CCC3(CC2)NC(C(C)C)C(=O)N3CCOc2ccccc2)cc1 (stereo not drawn) [Example 21, 3-Isopropyl-1-(2-phenoxy-ethyl)-8-(toluol-4-sulfonyl)-1,4,8-triazaspiro[4,5]decan-2-one] | 54
7 | Cc1cc(S(=O)(=O)N2CCC3(CC2)NC(CC(C)C)C(=O)N3Cc2ccccc2)c(C)cc1Cl (stereo not drawn) [Example 27, 1-Benzyl-8-(4-chloro-2,5-dimethylbenzolsulfonyl)-3-isobutyl-1,4,8-triazaspiro[4,5]decan-2-one] | 59
8 | COc1ccc(S(=O)(=O)N2CCC3(CC2)NCC(=O)N3Cc2ccccc2F)cc1 [Example 64, 1-(2-Fluorobenzyl)-8-(4-methoxy-benzolsulfonyl)-1,4,8-triazaspiro[4,5]decan-2-one] | 42
9 | C=CCN1C(=O)C(C(C)C)NC12CCN(S(=O)(=O)c1c(C)cc(C)cc1C)CC2 (stereo not drawn) [Example 70, 1-Allyl-3-isopropyl-8-(2,4,6-trimethylbenzolsulfonyl)-1,4,8-triazaspiro[4,5]decan-2-one] | 60
10 | C=CCN1C(=O)C(CCSC)NC12CCN(S(=O)(=O)c1ccc3c(c1)CN(C(=O)C(F)(F)F)CC3)CC2 (stereo not drawn) [Example 78, 1-Allyl-3-(2-methylsulfanylethyl)-8-[2-(2,2,2-trifluoroacetyl)-1,2,3,4-tetrahydroisoquinolin-7-sulfonyl]-1,4,8-triazaspiro[4,5]decan-2-one] | 32
11 | COc1ccc(CNC(=S)N2CCC3(CC2)NC(CCSC)C(=O)N3C)cc1 (stereo not drawn) [Example 111, 1-Methyl-3-(2-methylsulfanylethyl)-2-oxo-1,4,8-triazaspiro[4,5]decan-8-thiocarboxylic acid 4-methoxy-benzylamide] | 51
12 | CN1C(=O)C(Cc2ccccc2)NC12CCN(C(=S)NCc1cc(F)ccc1F)CC2 (stereo not drawn) [Example 118, 3-Benzyl-1-methyl-2-oxo-1,4,8-triazaspiro[4,5]decan-8-thiocarboxylic acid (2,5-difluorobenzol)amide] | 42
13 | C=CCNC(=S)N1CCC2(CC1)NC(C(C)C)C(=O)N2Cc1ccc(C(=O)OC)cc1 (stereo not drawn) [Example 126, Methyl 4-(8-allylthiocarbamoyl-3-isopropyl-2-oxo-1,4,8-triazaspiro[4,5]dec-1-ylmethyl)benzoate] | 37
14 | CCCCN1C(=O)C(CCSC)NC12CCN(C(=S)NCc1ccccc1OC)CC2 (stereo not drawn) [Example 127, 1-Butyl-3-(2-methylsulfanylethyl)-2-oxo-1,4,8-triazaspiro[4,5]decan-8-thiocarboxylic acid (2-methoxy-benzol)amide] | 44
15 | CSCCC1NC2(CCN(C(=S)NCc3ccc(Cl)cc3)CC2)N(C)C1=O (stereo not drawn) [Example 133, 1-Methyl-3-(2-methylsulfanylethyl)-2-oxo-1,4,8-triazaspiro[4,5]decan-8-thiocarboxylic acid (4-chlorobenzol)amide] | 44
